The results in this text go back to ChEMBL document CHEMBL2150935, “Synthesis, biological evaluation and chemometric analysis of indazole derivatives. 1,2-Disubstituted 5-nitroindazolinones, new prototypes of antichagasic drug” (Eur J Med Chem, 2012).

A short description of data set [1]: Growth inhibition of mouse J774 cells at 128 uM after 24 hrs by resazurin reduction assay. The following applies: read-out: GI. Format: cell-based. For orientation: Resazurin is reduced to fluorescent resorufin, in cell work by metabolically active cells.
In data set [2] the test system is Trypanosoma cruzi. Briefly: Growth inhibition of epimastigote form of Trypanosoma cruzi CL-B5 at 64 uM after 72 hrs by lacZ reporter gene assay. Format: functional. The following applies: CL-B5, 72 h, read-out: GI.
In data set [3] the test system is Trypanosoma cruzi. Briefly: Growth inhibition of epimastigote form of Trypanosoma cruzi CL-B5 at 5 uM after 72 hrs by lacZ reporter gene assay. Format: functional. The following applies: CL-B5, 72 h, read-out: GI. For orientation: Reporter assays use an easily measured gene product as a stand-in for the process of interest.
Data set [4] in a line: Growth inhibition of mouse J774 cells at 64 uM after 24 hrs by resazurin reduction assay. Format: cell-based. Particulars: read-out: GI.
The nature of data set [5]: Growth inhibition of mouse J774 cells at 2.5 uM after 24 hrs by resazurin reduction assay. Format: cell-based. The following applies: read-out: GI.
In data set [6] the test system is Trypanosoma cruzi. Briefly: Growth inhibition of epimastigote form of Trypanosoma cruzi CL-B5 at 2.5 uM after 72 hrs by lacZ reporter gene assay. The format is functional. Particulars: CL-B5, 72 h, read-out: GI.
Data set [7] has as its system Trypanosoma cruzi. The data set can be described thus: Growth inhibition of epimastigote form of Trypanosoma cruzi CL-B5 at 0.625 uM after 72 hrs by lacZ reporter gene assay. The format is functional. The following applies: CL-B5, 72 h, read-out: GI.
The nature of data set [8]: Growth inhibition of mouse J774 cells at 1.25 uM after 24 hrs by resazurin reduction assay. The format is cell-based. Particulars: read-out: GI.
Data set [9] can be described thus: Growth inhibition of mouse J774 cells at 8 uM after 24 hrs by resazurin reduction assay. Format: cell-based. The following applies: read-out: GI.
Data set [10] in a line: Growth inhibition of mouse J774 cells at 5 uM after 24 hrs by resazurin reduction assay. Format: cell-based. Particulars: read-out: GI.
Data set [11] concerns Trypanosoma cruzi. Briefly: Growth inhibition of epimastigote form of Trypanosoma cruzi CL-B5 at 16 uM after 72 hrs by lacZ reporter gene assay. Format: functional. Particulars: CL-B5, 72 h, read-out: GI.
The test system of data set [12] is Trypanosoma cruzi. Briefly: Growth inhibition of epimastigote form of Trypanosoma cruzi CL-B5 at 8 uM after 72 hrs by lacZ reporter gene assay. Format: functional. The following applies: CL-B5, 72 h, read-out: GI.
Data set [13] concerns Trypanosoma cruzi. The data set can be described thus: Growth inhibition of epimastigote form of Trypanosoma cruzi CL-B5 at 256 uM after 72 hrs by lacZ reporter gene assay. The following applies: CL-B5, 72 h, read-out: GI. The format is functional.
Data set [14] is described as follows: Growth inhibition of mouse J774 cells at 16 uM after 24 hrs by resazurin reduction assay. Format: cell-based. Particulars: read-out: GI.
Data set [15] can be described thus: Growth inhibition of mouse J774 cells at 0.625 uM after 24 hrs by resazurin reduction assay. The following applies: read-out: GI. Format: cell-based.
A short description of data set [16]: Growth inhibition of mouse J774 cells at 256 uM after 24 hrs by resazurin reduction assay. Format: cell-based. The following applies: read-out: GI.
Data set [17] has as its system Trypanosoma cruzi. The data set can be described thus: Growth inhibition of epimastigote form of Trypanosoma cruzi CL-B5 at 32 uM after 72 hrs by lacZ reporter gene assay. Format: functional. Particulars: CL-B5, 72 h, read-out: GI.
Data set [18] has as its system Trypanosoma cruzi. The data set can be described thus: Growth inhibition of epimastigote form of Trypanosoma cruzi CL-B5 at 1.25 uM after 72 hrs by lacZ reporter gene assay. Format: functional. Particulars: CL-B5, 72 h, read-out: GI.
In data set [19] the test system is Trypanosoma cruzi. The data set can be described thus: Growth inhibition of epimastigote form of Trypanosoma cruzi CL-B5 after 72 hrs by lacZ reporter gene assay. The format is functional, organism-based. Particulars: CL-B5, 72 h.
Data set [20] is described as follows: Growth inhibition of mouse J774 cells at 32 uM after 24 hrs by resazurin reduction assay. The format is cell-based. Particulars: read-out: GI.
The subject of data set [21] is Trypanosoma cruzi. Briefly: Growth inhibition of epimastigote form of Trypanosoma cruzi CL-B5 at 128 uM after 72 hrs by lacZ reporter gene assay. Particulars: CL-B5, 72 h, read-out: GI. Format: functional.
Data set [22] is described as follows: Growth inhibition of mouse J774 cells at 1 uM after 24 hrs by resazurin reduction assay. The format is cell-based. Particulars: read-out: GI.
The nature of data set [23]: Growth inhibition of mouse J774 cells at 4 uM after 24 hrs by resazurin reduction assay. The following applies: read-out: GI. Format: cell-based.
Data set [24] has as its system Trypanosoma cruzi. Briefly: Growth inhibition of epimastigote form of Trypanosoma cruzi CL-B5 at 4 uM after 72 hrs by lacZ reporter gene assay. The format is functional. Particulars: CL-B5, 72 h, read-out: GI.
Data set [25] deals with Trypanosoma cruzi. The data set can be described thus: Growth inhibition of epimastigote form of Trypanosoma cruzi CL-B5 at 1 uM after 72 hrs by lacZ reporter gene assay. The format is functional. Particulars: CL-B5, 72 h, read-out: GI.
Data set [26] has as its system Trypanosoma cruzi. The data set can be described thus: Growth inhibition of epimastigote form of Trypanosoma cruzi CL-B5 at 2 uM after 72 hrs by lacZ reporter gene assay. Format: functional. The following applies: CL-B5, 72 h, read-out: GI.
Data set [27] can be described thus: Growth inhibition of mouse J774 cells at 2 uM after 24 hrs by resazurin reduction assay. The format is cell-based. Particulars: read-out: GI.

With `CCCn1c2ccc([N+](=O)[O-])cc2c(=O)n1Cc1ccccc1`, the inhibition at 24 h, 128 µM in [1] was 0%. Besides, the inhibition of growth at 64 µM with Trypanosoma cruzi [2] is 92.7%. Also, in the data set with Trypanosoma cruzi [3], the inhibition of growth at 5 µM is 61.5%. Moreover, in data set [4], the inhibition at 24 h, 64 µM came out at 0%. In addition, the inhibition at 24 h, 2.5 µM in data set [5] was found to be 0.85%. The inhibition of growth at 2.5 µM in the data set on Trypanosoma cruzi [6] was determined as 59.8%. For the same compound, the inhibition of growth at 0.625 µM with Trypanosoma cruzi [7] was 56.2%. For the same compound, the inhibition at 24 h, 1.25 µM in data set [8] turned out to be 0.14%. In addition, in data set [9], the inhibition at 24 h, 8 µM was 0%. In data set [10], the inhibition at 24 h, 5 µM stood at 0.64%. In the data set on Trypanosoma cruzi [11], the inhibition of growth at 16 µM is 100%. Moreover, the inhibition of growth at 8 µM with Trypanosoma cruzi [12] is 100%. In addition, the inhibition of growth at 256 µM in the data set on Trypanosoma cruzi [13] was determined as 94.8%. The inhibition at 24 h, 16 µM in data set [14] amounted to 0%. Further, the inhibition at 24 h, 0.625 µM in data set [15] was found to be 4.18%. Besides, the inhibition at 24 h, 256 µM in data set [16] is 0%. Moreover, the inhibition of growth at 32 µM in the data set with Trypanosoma cruzi [17] was found to be 100%. Also, the inhibition of growth at 1.25 µM with Trypanosoma cruzi [18] turned out to be 59.5%. Also, the IC50 in the data set on Trypanosoma cruzi [19] stood at 0.93 µM. Besides, the inhibition at 24 h, 32 µM in data set [20] came to 0%. Besides, the inhibition of growth at 128 µM in the data set on Trypanosoma cruzi [21] is 92.8%.

Regarding `CCCCn1c2ccc([N+](=O)[O-])cc2c(=O)n1Cc1ccccc1`, the inhibition at 24 h, 128 µM in [1] worked out at 67.5%. For the same compound, in the data set with Trypanosoma cruzi [2], the inhibition of growth at 64 µM stood at 82.8%. For the same compound, in the data set on Trypanosoma cruzi [3], the inhibition of growth at 5 µM was found to be 61.7%. For the same compound, in data set [4], the inhibition at 24 h, 64 µM turned out to be 33.3%. In addition, the inhibition at 24 h, 2.5 µM in [5] turned out to be 1.92%. Moreover, the inhibition of growth at 2.5 µM in the data set on Trypanosoma cruzi [6] turned out to be 58.2%. Further, the inhibition of growth at 0.625 µM in the data set with Trypanosoma cruzi [7] turned out to be 49.7%. The inhibition at 24 h, 1.25 µM in data set [8] was determined as 5.37%. Also, the inhibition at 24 h, 8 µM in data set [9] was 7.65%. For the same compound, the inhibition at 24 h, 5 µM in data set [10] was 2.36%. The inhibition of growth at 16 µM in the data set on Trypanosoma cruzi [11] turned out to be 100%. Moreover, the inhibition of growth at 8 µM in the data set with Trypanosoma cruzi [12] amounted to 93%. In the data set on Trypanosoma cruzi [13], the inhibition of growth at 256 µM amounted to 84%. Further, in data set [14], the inhibition at 24 h, 16 µM is 7.92%. Besides, in data set [15], the inhibition at 24 h, 0.625 µM was found to be 0.14%. Besides, the inhibition at 24 h, 256 µM in data set [16] was 81.6%. In addition, in the data set on Trypanosoma cruzi [17], the inhibition of growth at 32 µM amounted to 100%. The inhibition of growth at 1.25 µM with Trypanosoma cruzi [18] amounted to 55.9%. In addition, the IC50 in the data set on Trypanosoma cruzi [19] stood at 1.17 µM. Also, in [20], the inhibition at 24 h, 32 µM came out at 27.1%. Moreover, the inhibition of growth at 128 µM in the data set with Trypanosoma cruzi [21] stood at 88.3%.

Take `CC1CS(=O)(=O)CCN1/N=C/c1ccc([N+](=O)[O-])o1` (stereo not drawn) [NIFURTIMOX]: the inhibition at 24 h, 128 µM in data set [1] came to 5%. The inhibition of growth at 64 µM with Trypanosoma cruzi [2] was 91.6%. Besides, the inhibition at 24 h, 64 µM in data set [4] is 0%. Moreover, in the data set on Trypanosoma cruzi [13], the inhibition of growth at 256 µM is 100%. In addition, in data set [16], the inhibition at 24 h, 256 µM stood at 25%. Further, the midpoint of inhibition with Trypanosoma cruzi [19], the IC50, lay at 3.61 µM. Moreover, in the data set on Trypanosoma cruzi [21], the inhibition of growth at 128 µM came to 97.1%.

As for `CC(C)n1c2ccc([N+](=O)[O-])cc2c(=O)n1Cc1ccccc1`, the inhibition at 24 h, 128 µM in data set [1] stood at 0%. Besides, the inhibition of growth at 64 µM in the data set with Trypanosoma cruzi [2] was found to be 87.6%. The inhibition at 24 h, 64 µM in data set [4] came to 14.5%. Further, the inhibition at 24 h, 1 µM in data set [22] was determined as 5.87%. Moreover, in data set [23], the inhibition at 24 h, 4 µM was determined as 65.2%. Moreover, the inhibition at 24 h, 8 µM in data set [9] was 10.3%. Besides, in the data set on Trypanosoma cruzi [24], the inhibition of growth at 4 µM was 4.11%. In addition, the inhibition of growth at 16 µM in the data set with Trypanosoma cruzi [11] came out at 97.6%. The inhibition of growth at 1 µM with Trypanosoma cruzi [25] was determined as 28%. In addition, the inhibition of growth at 8 µM in the data set with Trypanosoma cruzi [12] was 80.3%. For the same compound, the inhibition of growth at 256 µM with Trypanosoma cruzi [13] came to 90.4%. Further, the inhibition at 24 h, 16 µM in [14] stood at 0%. Further, the inhibition at 24 h, 256 µM in data set [16] stood at 0%. For the same compound, the inhibition of growth at 32 µM in the data set with Trypanosoma cruzi [17] came out at 100%. In the data set with Trypanosoma cruzi [19], 2.39 µM corresponded to half-maximal inhibition (IC50). Further, the inhibition at 24 h, 32 µM in data set [20] is 0%. The inhibition of growth at 2 µM with Trypanosoma cruzi [26] amounted to 37.4%. In data set [27], the inhibition at 24 h, 2 µM amounted to 8.76%. For the same compound, the inhibition of growth at 128 µM in the data set on Trypanosoma cruzi [21] turned out to be 88.3%.

In general, IC50 refers to the concentration that gives 50% inhibition. A higher IC50 goes with a need for much substance.
